The record followed here is ChEMBL document CHEMBL1129998, “Pharmacological options in the treatment of benign prostatic hyperplasia” (J Med Chem, 1997).

Assay [1] is described as follows: Inhibitory concentration on human 5-alpha reductase isozyme.
The target of assay [2] is T1, Steroid 5-alpha-reductase (Rattus norvegicus, UniProt P24008+P31214).
T1 sequence (P24008 whole entry): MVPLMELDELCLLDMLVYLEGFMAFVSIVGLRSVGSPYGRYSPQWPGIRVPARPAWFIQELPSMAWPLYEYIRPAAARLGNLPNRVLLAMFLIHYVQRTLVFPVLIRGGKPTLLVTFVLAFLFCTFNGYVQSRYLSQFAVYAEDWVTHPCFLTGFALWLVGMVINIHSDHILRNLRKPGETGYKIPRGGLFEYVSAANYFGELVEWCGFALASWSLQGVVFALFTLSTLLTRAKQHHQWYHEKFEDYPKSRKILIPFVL
T1 sequence (P31214 whole entry): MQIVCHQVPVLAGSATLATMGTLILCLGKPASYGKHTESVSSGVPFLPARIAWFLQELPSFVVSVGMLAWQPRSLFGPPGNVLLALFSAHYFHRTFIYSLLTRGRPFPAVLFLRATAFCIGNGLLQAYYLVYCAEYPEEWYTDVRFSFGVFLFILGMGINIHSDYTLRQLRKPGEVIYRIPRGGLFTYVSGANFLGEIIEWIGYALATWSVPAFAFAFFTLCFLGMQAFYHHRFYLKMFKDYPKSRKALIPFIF
In words: Inhibition of rat 5-alpha reductase isozyme. In kind it is protein assay.

The target in assay [3] is T2, Adrenergic receptor alpha-1 (Homo sapiens, UniProt P35348+P25100+P35368).
T2 sequence (P35348 whole entry): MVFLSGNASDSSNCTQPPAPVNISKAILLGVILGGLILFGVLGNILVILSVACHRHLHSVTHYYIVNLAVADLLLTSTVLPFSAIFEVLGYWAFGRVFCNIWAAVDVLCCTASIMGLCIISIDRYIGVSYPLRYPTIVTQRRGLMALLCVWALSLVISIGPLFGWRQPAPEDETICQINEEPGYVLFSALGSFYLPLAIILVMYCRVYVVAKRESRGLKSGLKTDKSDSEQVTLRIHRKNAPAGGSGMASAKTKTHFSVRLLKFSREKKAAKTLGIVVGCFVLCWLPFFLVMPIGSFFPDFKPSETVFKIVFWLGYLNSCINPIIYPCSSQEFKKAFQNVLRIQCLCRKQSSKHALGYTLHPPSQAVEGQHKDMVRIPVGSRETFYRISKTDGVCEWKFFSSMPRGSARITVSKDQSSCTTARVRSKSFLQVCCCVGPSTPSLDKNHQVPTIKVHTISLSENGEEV
T2 sequence (P25100 whole entry): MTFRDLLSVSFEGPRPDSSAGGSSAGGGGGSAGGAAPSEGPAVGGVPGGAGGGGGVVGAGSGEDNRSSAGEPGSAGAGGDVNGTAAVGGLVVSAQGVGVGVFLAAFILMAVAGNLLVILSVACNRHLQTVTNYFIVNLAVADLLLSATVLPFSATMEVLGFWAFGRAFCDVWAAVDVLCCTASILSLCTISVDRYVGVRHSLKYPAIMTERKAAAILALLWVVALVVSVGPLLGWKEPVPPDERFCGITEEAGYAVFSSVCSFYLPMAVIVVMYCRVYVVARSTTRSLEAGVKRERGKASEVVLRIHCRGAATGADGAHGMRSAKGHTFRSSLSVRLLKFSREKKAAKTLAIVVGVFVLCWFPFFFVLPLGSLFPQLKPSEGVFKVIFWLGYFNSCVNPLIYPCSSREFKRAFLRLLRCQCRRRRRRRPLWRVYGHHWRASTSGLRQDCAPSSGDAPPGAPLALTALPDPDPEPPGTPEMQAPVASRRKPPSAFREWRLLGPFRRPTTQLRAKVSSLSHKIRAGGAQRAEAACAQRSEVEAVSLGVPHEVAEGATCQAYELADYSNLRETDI
T2 sequence (P35368 whole entry): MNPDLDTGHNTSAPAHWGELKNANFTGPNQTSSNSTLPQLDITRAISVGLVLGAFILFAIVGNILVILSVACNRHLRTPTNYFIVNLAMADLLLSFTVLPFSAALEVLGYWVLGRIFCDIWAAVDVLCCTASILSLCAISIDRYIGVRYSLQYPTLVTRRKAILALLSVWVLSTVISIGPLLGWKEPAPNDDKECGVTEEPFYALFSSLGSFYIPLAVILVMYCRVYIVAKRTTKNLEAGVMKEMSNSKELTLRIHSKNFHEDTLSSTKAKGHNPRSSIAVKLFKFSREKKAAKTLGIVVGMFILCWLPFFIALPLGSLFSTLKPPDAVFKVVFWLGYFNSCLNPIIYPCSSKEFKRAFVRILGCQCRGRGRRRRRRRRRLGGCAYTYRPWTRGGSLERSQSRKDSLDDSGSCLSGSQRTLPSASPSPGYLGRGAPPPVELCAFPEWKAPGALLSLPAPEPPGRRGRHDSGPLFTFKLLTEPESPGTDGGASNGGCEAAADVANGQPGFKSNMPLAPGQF
In words: pA2 for Alpha-1 adrenergic receptor from human prostate. Type of assay: tissue-based, Prostate gland.

Assay [4] addresses T3, Alpha-1D adrenergic receptor (Homo sapiens, UniProt P25100).
T3 sequence (P25100 whole entry): T2 sequence (P25100 whole entry)
As to the kind of experiment: Binding affinity was tested on human Alpha-1D adrenergic receptor.

The target in assay [5] is T4, Alpha-1B adrenergic receptor (Homo sapiens, UniProt P35368).
T4 sequence (P35368 whole entry): T2 sequence (P35368 whole entry)
In words: Binding affinity was tested on human Alpha-1B adrenergic receptor.

A short description of assay [6]: Apparent binding affinity on human 5-alpha reductase isozyme.
Assay [7] deals with T5, 3-oxo-5-alpha-steroid 4-dehydrogenase 1 (Homo sapiens, UniProt P18405).
T5 sequence (P18405 whole entry): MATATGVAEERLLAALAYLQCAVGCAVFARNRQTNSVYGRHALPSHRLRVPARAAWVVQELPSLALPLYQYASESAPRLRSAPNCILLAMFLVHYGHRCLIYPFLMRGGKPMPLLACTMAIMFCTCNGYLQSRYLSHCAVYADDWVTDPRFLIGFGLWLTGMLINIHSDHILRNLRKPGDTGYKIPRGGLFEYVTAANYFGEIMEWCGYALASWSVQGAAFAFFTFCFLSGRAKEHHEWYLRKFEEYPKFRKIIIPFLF
As to the kind of experiment: Inhibitory concentration was tested on human 5-alpha reductase 1 isozyme.

Assay [8] addresses T6, 3-oxo-5-alpha-steroid 4-dehydrogenase 2 (Homo sapiens, UniProt P31213).
T6 sequence (P31213 whole entry): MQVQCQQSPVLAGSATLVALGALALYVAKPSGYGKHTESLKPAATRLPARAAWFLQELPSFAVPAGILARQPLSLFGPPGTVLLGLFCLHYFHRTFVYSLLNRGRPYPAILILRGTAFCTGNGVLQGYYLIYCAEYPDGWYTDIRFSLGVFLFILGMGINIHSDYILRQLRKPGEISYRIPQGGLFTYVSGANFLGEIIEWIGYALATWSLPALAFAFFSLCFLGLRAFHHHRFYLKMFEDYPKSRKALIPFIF
In words: Inhibition of human 5-alpha reductase 2 isozyme.

Assay [9] deals with T7, Alpha-1A adrenergic receptor (Homo sapiens, UniProt P35348).
T7 sequence (P35348 whole entry): T2 sequence (P35348 whole entry)
In words: Binding affinity was tested on human Alpha-1A adrenergic receptor.

For assay [10], the system named is Canis familiaris. In words: 50% reduction in intraurethral pressure (IUP) in response to hypogastric nerve stimulation or agonist (phenylephrine or norepinephrine) administration in anesthetized dog. Type of assay: functional. As to conditions: Canis lupus familiaris; read-out: ID50 (the source's name).
Assay [11] has as its system Canis familiaris. In words: 50% reduction in agonist induced pressor response in anesthetized dog. Type of assay: functional. As to conditions: Canis lupus familiaris; read-out: ID50 (the source's name).

In the case of `CC(C)N(C(=O)[C@H]1CC[C@H]2[C@@H]3CC[C@H]4C(F)=C(C(=O)O)CC[C@]4(C)[C@H]3CC[C@]12C)C(C)C`, the IC50 (usually the point on the concentration scale where inhibition reaches its midpoint) is 0.026 µM in assay [1] and 0.035 µM in assay [2].

`CC(C)N(C(=O)C1=CCC2C3CCC4=CC(C(=O)O)=CC[C@]4(C)C3CC[C@]12C)C(C)C` (stereo not given in full): the IC50 in assay [1] was 0.007 µM; in assay [2] it was 0.047 µM.

Turning to `C=Cc1sc2ccc(Cl)c3c2c1CN(C)CC3`, the pA2 (in general, the negative logarithm of the molar antagonist concentration that doubles the agonist concentration needed for the same response) in assay [3] was found to be 7.5. For the same molecule, the Ki was 0.00316 µM in assay [4] and 0.02 µM in assay [5].

`CC(C)N(C(=O)[C@H]1CCC2C3CCC4C=C([N+](=O)[O-])CC[C@]4(C)C3CC[C@@]21C)C(C)C` (stereo not given in full): the Ki in [6] amounted to 0.05 µM.

Regarding `CC(C)N(C(=O)[C@H]1CCC2C3C=CC4=CC(C(=O)O)=CC[C@]4(C)C3CC[C@@]21C)C(C)C` (stereo not given in full), the IC50 in assay [1] amounted to 0.012 µM; in assay [2] it was 0.3 µM.

Turning to `CC(C)N(C(=O)[C@H]1CCC2C3CC=C4C=C(C(=O)O)CC[C@]4(C)C3CC[C@@]21C)C(C)C` (stereo not given in full), in assay [6], the Ki amounted to 0.007 µM.

On to `CCCc1ccc(OC(C)c2ccc(C(=O)c3cn(CCCC(=O)O)c4ccccc34)cc2)cc1` (stereo not given), for which the IC50 in assay [2] was found to be 0.005 µM; in [7] it was 0.008 µM; in assay [8], 0.01 µM.

Regarding `CC(C)N(C(=O)[C@H]1CCC2C3CC=C4C=C([N+](=O)[O-])CC[C@]4(C)C3CC[C@@]21C)C(C)C` (stereo not given in full), the Ki in assay [6] stood at 0.59 µM.

Regarding `CC1=C2C=C(C(=O)O)CC[C@]2(C)C2CC[C@@]3(C)C(CC[C@@H]3C(=O)c3cccc4ccccc34)C2C1` (stereo not given in full), the IC50 in [1] came to 0.17 µM; in [2], 0.2 µM.

Regarding `Cc1c(C(=O)c2ccc3c(c2)OC(c2ccc(Cl)cc2)(c2ccc(Cl)cc2)O3)c2ccccc2n1CCCC(=O)O`, the IC50 in assay [2] was found to be 0.588 µM; in assay [7], 0.01 µM; in assay [8], 6.3 µM.

`O=C(CCCN1CCC(NC(=O)c2ccccc2)CC1)c1ccccc1` showed a pA2 in assay [3] of 7.9. In addition, the Ki in assay [9] was 0.0158 µM; in [4], 0.794 µM; in [5], 0.2 µM.

In assay [3], `COc1ccccc1N1CCN(CCCNc2c(C)c(=O)n(C)c(=O)n2C)CC1` came in with a pA2 of 8.2. For the same molecule, the Ki in assay [9] is 0.000631 µM; in assay [4] it was 0.01 µM; in [5], 0.0398 µM.

On to `CC1=C(C(=O)O)CC[C@@]2(C)C1=CCC1C2CC[C@@]2(C)C1CC[C@@H]2C(=O)N(C(C)C)C(C)C` (stereo not given in full), for which the half-inhibitory concentration (IC50) amounted to 0.035 µM in assay [1] and 0.07 µM in assay [2].

Molecule `CC(C)(Cc1c[nH]c2ccc(Cl)cc12)NCCOc1ccccc1OCC1CC1` came in with a pA2 in [3] of 7.3. Further, the Ki in [9] was 0.000631 µM; in assay [4] it was 0.0158 µM; in assay [5] it was 0.0158 µM.

As to `CC(C)N(C(=O)[C@H]1CCC2C3CCC4C=C([N+](=O)[O-])C=CC4(C)C3CC[C@@]21C)C(C)C` (single isomer, unassigned), the Ki in assay [6] is greater than 5 µM.

For `CCOc1ccccc1OCCN[C@H](C)Cc1ccc(OC)c(S(N)(=O)=O)c1` (stereo in doubt; form 1) [TAMSULOSIN], the ED50 in assay [10] is 0.002 mg/kg; in assay [11], 0.001 mg/kg. Also, the Ki in assay [4] is 0.000158 µM; in assay [5], 0.00126 µM.

As for `CC(C)(C)NC(=O)[C@H]1CC[C@H]2[C@@H]3CC=C4C=C(C(=O)O)CC[C@]4(C)[C@H]3CC[C@]12C` [EPRISTERIDE], the IC50 in [1] came out at 0.018 µM; in [2], 0.05 µM.

For the molecule `O=C(NC1CCN(CCc2c[nH]c3ccccc23)CC1)c1ccccc1` [INDORAMIN], the pA2 in [3] was found to be 8.7. The Ki was 0.00398 µM in assay [9], 0.158 µM in assay [4] and 0.0398 µM in assay [5].

As to `COc1cc2nc(N3CCN(C(=O)c4ccco4)CC3)nc(N)c2cc1OC` [PRAZOSIN], the ED50 in assay [10] was 0.012 mg/kg; in assay [11], 0.011 mg/kg.

`COc1cc2nc(N3CCN(C(=O)C4CCCO4)CC3)nc(N)c2cc1OC` (stereo not given) [TERAZOSIN]: the ED50 turned out to be 0.101 mg/kg in assay [10] and 0.085 mg/kg in assay [11]. Besides, the Ki in assay [4] was 0.00398 µM.
